Measurements: patent US4103010A, “(3-Piperazinocarbonylimino-quanidino)-isoxazoles” (Aron S.A.R.L., priority 1975, dated 1978)
Where two headings read alike, the source gives them in different places.

Assays:
[1] = acute toxicity investigation in mice; details: mouse, in vivo
Doca rats = test: decrease of the systolic blood pressure in Doca rats; type: in vivo; details: Rattus norvegicus, oral, 2 × 3 mg/kg, with respect to original value, read-out: percent decrease of the systolic blood pressure
Protocol: (§1) The above results are confirmed by the results of an investigation of the action on the control of blood pressure. On oral administration of a dosage of 2 × 3 mg/kg of compound to Doca rats (Technique according to Green and co-workers, Am. J. Physiol., 1952, 170, p. 94) and to Grollman rats (Technique according to Grollman, Proc. Soc. Exp. Biol. Med., 1944, 57, p. 102), the percent decrease of the systolic blood pressure with respect to its original value is noted.

[2] = system: uptake of ^3 H noradrenalin by the synaptosomes of a rat hypothalamus homogenate; test: inhibition of the uptake of ^3 H noradrenalin by synaptosomes of a rat hypothalamus homogenate; type: biochemical; details: with respect to the control test
Text: The compounds of the formula (I) are capable of modifying the accumulation of noradrenalin and particularly to inhibit the uptake of ^3 H noradrenalin by the synaptosomes of a rat hypothalamus homogenate prepared according to Banerjee, Snyder and Mechoulam (J. Pharmacol. Exp. Ther., 194, 1, 74, 1975). This inhibition of the uptake of ^3 H noradrenaline is a known property of various compounds having an activity on the central nervous system and/or on the sympathetic nervous system, particularly a hypotensive effect (J. Glowinski and J. Axelrod, effects of Drugs on the Disposition of ^3 H norepinephrine in the Rat Brain, Pharmacological Reviews, Vol. 18, No […], Part I, 1966).
They are expressed as percent inhibition of the uptake with respect to the control test.

Grollman rats = test: decrease of the systolic blood pressure in Grollman rats; type: in vivo, rat; details: oral, 2 × 3 mg/kg, with respect to original value
Protocol: as §1

[3] = iv, read-out: LD50 (mg/kg) i.v.
[4] = po, read-out: LD50 (mg/kg) p.o.
[5] = ultimate molar concentration 5 × 10^-5 M
[6] = ultimate molar concentration 5 × 10^-6 M
[7] = ultimate molar concentration 5 × 10^-4 M

| Structure (SMILES) | LD50 [1, 3] [mg/kg] | LD50 [1, 4] [mg/kg] | inhibition in vivo at 3 mg/kg (Doca rats) [%] | inhibition % of the uptake of ^3 H noradrenalin [2, 5] [%] | inhibition % of the uptake of ^3 H noradrenalin [2, 6] [%] | inhibition % of the uptake of ^3 H noradrenalin [2, 7] [%] | percent decrease of the systolic blood pressure (Grollman rats) [%] |
| --- | --- | --- | --- | --- | --- | --- | --- |
| Cc1cc(N(C)C(=N)NC(=N)N)no1 [Example 7] | 70 | > 1000 | 15 |  |  |  |  |
| Cc1conc1NC(=N)NC(=N)N [Example 8] |  |  |  | 55 | 36 |  |  |
| Cc1cc(NC(=N)NC(=N)N2CCN(C)CC2)no1 [Example 19] |  |  | 20 |  |  |  |  |
| Cc1noc(C)c1NC(=N)NC(=N)N [Example 22] | > 100 | > 1500 |  |  |  |  |  |
| CCCCNC(=N)NC(=N)Nc1c(C)noc1C [Example 23] |  | > 750 |  |  |  | 51 |  |
| Cc1noc(C)c1NC(=N)NC(=N)N(C)C [Example 24] |  | > 750 |  |  |  | 28.4 |  |
| Cc1noc(NC(=N)NC(=N)N)c1C [Example 25] | 20 | 300 | 20 | 45.5 |  |  |  |
| CCCCNC(=N)NC(=N)Nc1onc(C)c1C [Example 26] | 35 | 250 |  | 39.6 |  |  |  |
| CCCN1CCN(C(=N)NC(=N)Nc2cc(C)on2)CC1 [Example 28] |  | 400 | 18 | 20 |  | 60.2 | 18 |
| Cc1conc1NC(=N)NC(=N)N1CCN(C)CC1 [Example 29] |  | > 1000 | 15 | 65.8 | 30.8 |  | 15 |
| Cc1cc(NC(=N)NC(=N)N2CCNCC2)no1 [Example 30] |  | > 1000 | 10 |  |  | 51 |  |
